Source: ChEMBL document CHEMBL1201862, “PubChem BioAssay data set” (2004)
Values belong to the molecule of their own block, whether it stands above or below them. Activity calls are given as the source filed them.

Experiments:
[1] = target: ATP-dependent translocase ABCB1 (Homo sapiens, UniProt P08183); experiment: inhibition of P-gp mediated JC-1 efflux – Jurkat-DNR cells, flow cytometry, dose response (AID 1689); assay type: functional
[2] = reduction of Shn3 3'UTR-driven luciferase in osteoblasts – cell-based, Clone20 osteoblasts, firefly luciferase, cherry-picked, dose response (AID 624132); assay type: functional;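 also: firefly luciferase luminescence from reporter carrying the Shn3 3'UTR in osteoblasts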
[3] = loss of viability in HepG2 cells – cell-based, CellTiter-Glo, cherry-picked, cytotoxicity control for Shn3 inhibitor project, dose response (AID 624134); assay type: functional
[4] = non-specific 3'UTR reporter inhibition in Clone20-Shn3RL – cell-based, Renilla luciferase, cherry-picked, counter-screen for Shn3 inhibitor project, dose response (AID 624133); assay type: functional
Protein Wnt-3a = Protein Wnt-3a (Mus musculus, UniProt P27467); experiment: antagonism of Wnt3a pathway luciferase reporter – Wnt-LIGHT cells, luminescence, selectivity assay for Gli-SUFU antagonist project, dose response (AID 651570); assay type: functional; conditions: read-out: IC50_Mean;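 also: Wnt-LIGHT reporter cells stimulated with conditioned medium from Wnt3a-producing cells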
Chain of Protein Wnt-3a (P27467 whole entry): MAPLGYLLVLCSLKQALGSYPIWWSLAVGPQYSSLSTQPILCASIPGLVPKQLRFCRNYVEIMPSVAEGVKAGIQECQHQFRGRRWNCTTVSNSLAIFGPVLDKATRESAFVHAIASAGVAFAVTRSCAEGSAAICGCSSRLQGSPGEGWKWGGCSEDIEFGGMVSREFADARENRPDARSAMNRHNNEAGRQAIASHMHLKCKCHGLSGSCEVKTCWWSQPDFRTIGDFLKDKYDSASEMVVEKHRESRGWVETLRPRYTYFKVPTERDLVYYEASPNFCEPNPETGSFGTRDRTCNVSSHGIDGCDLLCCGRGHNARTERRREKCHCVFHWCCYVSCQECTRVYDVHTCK

Cytochrome P450 2D6 = Cytochrome P450 2D6 (Homo sapiens, UniProt P10635);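 also: CYP2D6 member of a cytochrome P450 panel assay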
Chain of Cytochrome P450 2D6 (P10635 whole entry): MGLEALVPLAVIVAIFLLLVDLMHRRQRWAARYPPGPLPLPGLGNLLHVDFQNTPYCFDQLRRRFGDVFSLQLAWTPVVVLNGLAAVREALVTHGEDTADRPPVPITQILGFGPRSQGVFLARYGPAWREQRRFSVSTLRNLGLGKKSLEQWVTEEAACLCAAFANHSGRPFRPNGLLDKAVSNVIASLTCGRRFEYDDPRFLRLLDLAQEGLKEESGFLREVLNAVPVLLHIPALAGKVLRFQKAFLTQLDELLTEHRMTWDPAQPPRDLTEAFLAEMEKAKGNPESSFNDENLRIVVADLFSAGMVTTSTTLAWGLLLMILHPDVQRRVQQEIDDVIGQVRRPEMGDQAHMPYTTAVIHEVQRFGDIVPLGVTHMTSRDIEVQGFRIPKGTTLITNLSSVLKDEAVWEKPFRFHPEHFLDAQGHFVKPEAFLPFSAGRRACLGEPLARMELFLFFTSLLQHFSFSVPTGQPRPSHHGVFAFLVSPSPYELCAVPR

[5] = target: ADP-ribosylation factor GTPase-activating protein 1 (Rattus norvegicus, UniProt Q62848); experiment: Fluorescence polarization-based biochemical high throughput dose response screening assay to identify inhibitors of ADP-ribosylation factor GTPase activating protein 1 (ARFGAP1).; assay type: functional
Chain of ADP-ribosylation factor GTPase-activating protein 1 (Q62848 whole entry, the tested form may be a part): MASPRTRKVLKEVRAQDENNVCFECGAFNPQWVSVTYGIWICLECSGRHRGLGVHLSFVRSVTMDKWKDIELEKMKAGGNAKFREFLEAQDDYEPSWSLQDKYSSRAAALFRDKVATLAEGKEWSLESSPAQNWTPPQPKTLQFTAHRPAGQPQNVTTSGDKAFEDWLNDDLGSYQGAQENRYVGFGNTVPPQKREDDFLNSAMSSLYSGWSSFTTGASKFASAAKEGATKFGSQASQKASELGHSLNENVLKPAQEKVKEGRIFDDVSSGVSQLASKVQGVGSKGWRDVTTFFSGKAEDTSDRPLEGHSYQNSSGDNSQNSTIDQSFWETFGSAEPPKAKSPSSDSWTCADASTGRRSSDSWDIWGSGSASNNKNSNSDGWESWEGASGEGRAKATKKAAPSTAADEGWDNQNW

[6] = target: T1, Carboxy-terminal domain RNA polymerase II polypeptide A small phosphatase 1 (Homo sapiens, UniProt Q9GZU7); experiment: CTDSP1 inhibitors, concentration-response, biochemical, absorbance readout, ultra-high-throughput screen actives (AID 540297); assay type: functional
T1 sequence (Q9GZU7 whole entry): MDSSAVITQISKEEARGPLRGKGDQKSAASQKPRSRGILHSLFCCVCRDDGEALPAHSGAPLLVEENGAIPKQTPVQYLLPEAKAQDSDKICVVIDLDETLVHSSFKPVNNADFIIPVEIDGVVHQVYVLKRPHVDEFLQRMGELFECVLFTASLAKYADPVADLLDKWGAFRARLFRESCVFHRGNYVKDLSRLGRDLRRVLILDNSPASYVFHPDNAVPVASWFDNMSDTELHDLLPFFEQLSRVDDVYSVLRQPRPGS

[7] = target: T2, Sentrin-specific protease 1 (Homo sapiens, UniProt Q9P0U3); experiment: Dose response confirmation of small molecule inhibitors of the catalytic domain of the SUMO protease, SENP1 in a FRET assay.; assay type: functional; conditions: read-out: IC50_Mean
T2 sequence (Q9P0U3 whole entry, the tested form may be a part): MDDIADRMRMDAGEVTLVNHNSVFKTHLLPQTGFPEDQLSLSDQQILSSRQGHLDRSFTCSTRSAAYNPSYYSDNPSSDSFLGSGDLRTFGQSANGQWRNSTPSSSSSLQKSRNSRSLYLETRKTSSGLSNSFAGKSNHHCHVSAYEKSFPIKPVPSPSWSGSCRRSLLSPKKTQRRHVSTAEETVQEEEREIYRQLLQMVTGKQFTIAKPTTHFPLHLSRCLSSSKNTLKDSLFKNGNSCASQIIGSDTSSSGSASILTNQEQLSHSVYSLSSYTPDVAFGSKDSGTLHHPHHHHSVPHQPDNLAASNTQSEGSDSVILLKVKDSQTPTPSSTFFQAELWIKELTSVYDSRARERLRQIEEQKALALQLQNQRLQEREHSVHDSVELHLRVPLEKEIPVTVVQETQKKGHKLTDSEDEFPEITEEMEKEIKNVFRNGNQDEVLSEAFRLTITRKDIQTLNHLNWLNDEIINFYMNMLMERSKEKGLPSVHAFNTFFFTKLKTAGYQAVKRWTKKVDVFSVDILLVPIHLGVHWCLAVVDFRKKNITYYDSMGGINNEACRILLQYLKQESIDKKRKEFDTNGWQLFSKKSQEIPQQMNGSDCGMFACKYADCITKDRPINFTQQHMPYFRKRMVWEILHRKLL

[8] = target: T2, Sentrin-specific protease 1; experiment: SENP1 catalytic domain blockers, concentration series – biochemical, kinetic FRET, dose response (AID 651697); assay type: functional; conditions: read-out: IC50_Mean
[9] = target: Mitochondrial peptide methionine sulfoxide reductase (Bos taurus, UniProt P54149); assay type: functional;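 also: absorbance read-out, biochemical high-throughput dose-response screen for MsrA inhibitors, confirmatory; recombinant bovine MsrA coupled to E. coli TrxB with NADPH and selenocystamine; potency is for inhibitors of MsrA activity on DMSO substrate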
Chain of Mitochondrial peptide methionine sulfoxide reductase (P54149 whole entry): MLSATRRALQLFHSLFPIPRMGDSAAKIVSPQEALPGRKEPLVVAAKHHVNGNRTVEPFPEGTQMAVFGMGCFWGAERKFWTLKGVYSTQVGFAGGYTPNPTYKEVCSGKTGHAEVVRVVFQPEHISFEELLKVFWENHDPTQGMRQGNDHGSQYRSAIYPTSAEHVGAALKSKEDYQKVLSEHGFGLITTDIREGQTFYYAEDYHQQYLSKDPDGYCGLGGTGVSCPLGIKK

[10] = target: Potassium voltage-gated channel subfamily KQT member 2 (Rattus norvegicus, UniProt O88943); experiment: blockers of KCNQ2 channel current – cell-based, automated electrophysiology, set II, rat KCNQ2, dose response (AID 588637); assay type: functional
Chain of Potassium voltage-gated channel subfamily KQT member 2 (O88943 whole entry, the tested form may be a part): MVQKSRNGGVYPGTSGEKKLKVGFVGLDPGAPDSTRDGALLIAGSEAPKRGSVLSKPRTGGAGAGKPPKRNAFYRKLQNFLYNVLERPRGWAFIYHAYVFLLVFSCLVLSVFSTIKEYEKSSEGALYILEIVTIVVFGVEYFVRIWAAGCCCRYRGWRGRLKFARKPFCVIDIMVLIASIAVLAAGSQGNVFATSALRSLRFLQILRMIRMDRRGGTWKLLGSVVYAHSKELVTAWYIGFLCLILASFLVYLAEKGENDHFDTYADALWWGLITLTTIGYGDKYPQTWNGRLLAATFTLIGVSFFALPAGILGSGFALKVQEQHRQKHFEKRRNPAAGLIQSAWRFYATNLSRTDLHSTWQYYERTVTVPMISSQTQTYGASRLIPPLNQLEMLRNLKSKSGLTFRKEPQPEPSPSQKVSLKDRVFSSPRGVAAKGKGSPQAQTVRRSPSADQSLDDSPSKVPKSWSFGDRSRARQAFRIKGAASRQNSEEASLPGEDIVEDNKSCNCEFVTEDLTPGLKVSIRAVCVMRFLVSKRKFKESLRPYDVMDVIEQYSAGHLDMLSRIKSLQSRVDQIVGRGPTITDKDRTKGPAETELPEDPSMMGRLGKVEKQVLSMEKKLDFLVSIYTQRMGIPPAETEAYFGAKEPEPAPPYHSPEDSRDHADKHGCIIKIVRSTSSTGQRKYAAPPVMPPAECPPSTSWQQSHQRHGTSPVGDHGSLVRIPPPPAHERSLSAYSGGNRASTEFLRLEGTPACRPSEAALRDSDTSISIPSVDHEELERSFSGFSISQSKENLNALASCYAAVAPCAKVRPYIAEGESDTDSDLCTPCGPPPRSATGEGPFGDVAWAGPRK

[11] = inhibition of ARNT PAS-B/TACC3 complex formation – biochemical, AlphaScreen, cherry-picked samples, confirmation (AID 651703); assay type: functional, Homo sapiens;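 also: His-tagged ARNT PAS-B domain paired with GST-TACC3 E629A dimer coactivator fragment; potency of inhibitors that break up the complex and lower AlphaScreen signal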

Chain of ATP-dependent translocase ABCB1 (P08183 whole entry): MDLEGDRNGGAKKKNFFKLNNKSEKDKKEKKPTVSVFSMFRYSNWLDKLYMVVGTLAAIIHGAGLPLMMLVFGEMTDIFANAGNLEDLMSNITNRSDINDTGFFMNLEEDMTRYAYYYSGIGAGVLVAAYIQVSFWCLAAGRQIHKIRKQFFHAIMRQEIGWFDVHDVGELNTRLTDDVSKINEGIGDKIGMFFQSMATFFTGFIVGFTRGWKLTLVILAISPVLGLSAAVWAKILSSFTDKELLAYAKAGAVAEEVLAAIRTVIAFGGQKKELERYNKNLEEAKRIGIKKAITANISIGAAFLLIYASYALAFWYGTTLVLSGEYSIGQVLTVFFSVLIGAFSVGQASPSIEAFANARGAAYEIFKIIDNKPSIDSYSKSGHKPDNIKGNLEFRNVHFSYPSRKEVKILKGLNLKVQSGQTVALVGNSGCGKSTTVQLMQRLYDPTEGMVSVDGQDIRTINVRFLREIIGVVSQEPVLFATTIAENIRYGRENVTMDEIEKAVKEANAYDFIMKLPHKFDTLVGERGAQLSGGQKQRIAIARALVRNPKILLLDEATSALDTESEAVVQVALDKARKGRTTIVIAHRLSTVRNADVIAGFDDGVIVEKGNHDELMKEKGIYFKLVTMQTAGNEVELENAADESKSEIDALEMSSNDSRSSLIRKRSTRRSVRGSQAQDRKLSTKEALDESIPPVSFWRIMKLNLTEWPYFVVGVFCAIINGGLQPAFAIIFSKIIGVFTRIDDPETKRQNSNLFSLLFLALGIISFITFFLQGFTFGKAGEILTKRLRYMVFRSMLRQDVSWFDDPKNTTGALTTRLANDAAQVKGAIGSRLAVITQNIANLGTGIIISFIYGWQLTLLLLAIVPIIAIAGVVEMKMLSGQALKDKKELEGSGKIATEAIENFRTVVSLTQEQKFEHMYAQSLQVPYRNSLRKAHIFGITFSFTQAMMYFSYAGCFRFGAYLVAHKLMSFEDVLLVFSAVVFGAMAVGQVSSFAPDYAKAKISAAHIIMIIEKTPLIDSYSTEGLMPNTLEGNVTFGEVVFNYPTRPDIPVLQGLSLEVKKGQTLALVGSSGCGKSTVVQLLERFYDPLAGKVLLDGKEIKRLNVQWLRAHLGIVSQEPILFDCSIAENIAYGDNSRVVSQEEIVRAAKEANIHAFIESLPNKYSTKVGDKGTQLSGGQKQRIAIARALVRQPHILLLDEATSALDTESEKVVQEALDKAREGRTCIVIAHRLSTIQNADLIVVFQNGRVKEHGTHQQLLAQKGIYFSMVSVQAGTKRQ

SMILES: O=c1c2ccccc2nc2n1C(CSCc1cccc(C(F)(F)F)c1)CS2 (stereo not drawn)
AC50 [2]: 1.68 µM (active)
AC50 [3]: 3.22 µM (active)
AC50 [4]: 0.863 µM (active)
IC50 (Protein Wnt-3a): 2.01 µM (active)
AC50 (Cytochrome P450 2D6): 7.08 µM (inconclusive)

SMILES: O=C(N/N=C/c1sc(=O)n(Cc2ccc(Br)cc2)c1Cl)c1ccco1
IC50 [5]: 34.3 µM (inactive)
IC50 [6]: 3.55 µM (active)

SMILES: N#Cc1ccc(-c2nc3ccc(Cl)cn3c2Cc2ccccc2C(F)(F)F)cc1
IC50 [7]: 8.47 µM (active)
IC50 [8]: 9.87 µM (active)

SMILES: Cc1ccc(C(=O)N/N=C/C=C/c2ccccc2)o1
IC50 [9]: 134 µM (inactive)

SMILES: O=C1c2cccc3cccc(c23)C(=O)N1CCCCCc1nnc(S)o1
AC50 [11]: 102 µM (active)

Next, values leading:

EC50 [1]: 23.9 µM (inactive)
SMILES: CCCCn1c(O)c(/N=N/c2ccccn2)c2ccccc21

IC50 [10]: 1.23 µM (active)
SMILES: CC(C)(C)N1CC(c2nc3ccccc3n2Cc2ccc(Cl)cc2)CC1=O (stereo not drawn)
